Data on 11 compounds can be found in patent US12479840B2, “HMG-CoA reductase degradation inducing compound” (Uppthera, priority 2020, dated 2025).

The assay has as its target T1, HMG-CoA reductase (Homo sapiens, UniProt P04035).
T1 construct: endogenous in cells; host or cells: HepG2 (Korea Cell Line Bank)
T1 sequence (P04035 1-888): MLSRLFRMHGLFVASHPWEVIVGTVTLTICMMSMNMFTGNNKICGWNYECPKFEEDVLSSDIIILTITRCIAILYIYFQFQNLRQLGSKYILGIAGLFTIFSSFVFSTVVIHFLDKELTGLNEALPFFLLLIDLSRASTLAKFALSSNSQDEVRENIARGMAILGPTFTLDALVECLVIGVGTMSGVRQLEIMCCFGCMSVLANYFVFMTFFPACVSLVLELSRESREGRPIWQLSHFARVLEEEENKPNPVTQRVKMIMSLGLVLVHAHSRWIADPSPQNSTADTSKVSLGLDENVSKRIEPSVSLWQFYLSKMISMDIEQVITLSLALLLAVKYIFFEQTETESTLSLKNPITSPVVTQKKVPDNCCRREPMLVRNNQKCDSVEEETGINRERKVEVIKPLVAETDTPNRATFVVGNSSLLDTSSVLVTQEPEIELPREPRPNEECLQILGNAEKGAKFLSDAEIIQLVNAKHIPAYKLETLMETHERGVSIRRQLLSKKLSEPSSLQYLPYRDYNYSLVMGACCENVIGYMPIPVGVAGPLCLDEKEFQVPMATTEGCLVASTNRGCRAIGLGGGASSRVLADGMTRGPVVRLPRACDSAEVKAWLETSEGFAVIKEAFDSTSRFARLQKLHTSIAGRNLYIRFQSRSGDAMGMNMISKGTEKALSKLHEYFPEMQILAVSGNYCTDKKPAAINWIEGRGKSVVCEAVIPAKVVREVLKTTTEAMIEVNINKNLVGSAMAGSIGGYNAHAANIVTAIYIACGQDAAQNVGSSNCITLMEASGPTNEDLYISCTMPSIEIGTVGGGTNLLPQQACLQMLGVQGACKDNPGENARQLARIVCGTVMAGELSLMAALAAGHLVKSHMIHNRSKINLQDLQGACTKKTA
Put plainly: HMG-CoA reductase (HMGCR) degradation in HepG2 cells by western blotting. The class given is cell-based. The following applies: treated for 18 hours, ratio of HMG-CoA reductase to GAPDH, read-out: DC50. The essentials: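 Western blot read-out: HMGCR protein probed (1:500, 16 hours at 4° C) alongside GAPDH loading control on 15 μg BCA-normalised RIPA lysates. Lysates came from HepG2 cells (P105–P110) exposed for 18 hours to a 10-point, three-fold series starting at 3 μM.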
Background: In western blotting, separated proteins are transferred to a membrane and probed.
`C[C@H]1C=C2C=C[C@H](C)[C@H](CC[C@@H]3C[C@@H](O)CC(=O)O3)[C@H]2[C@@H](OC(=O)NCCCCCCCCNC(=O)COc2cccc3c2C(=O)N(C2CCC(=O)NC2=O)C3=O)C1` (stereo partly drawn) [Compound 97, (1S,3R,7S,8S,8aR)-8-(2-((2R,4R)-4-hydroxy-6-oxotetrahydro-2H-pyran-2-yl)ethyl)-3,7-dimethyl-1,2,3,7,8,8a-hexahydronaphthalen-1-yl (8-(2-((2-(2,6-dioxopiperidin-3-yl)-1,3-dioxoisoindolin-4-yl)oxy)acetamido)octyl)carbamate]: the DC50 was 50 to 500 nM.
As for `C[C@H]1C=C2C=C[C@H](C)[C@H](CC[C@@H]3C[C@@H](O[Si](C)(C)C(C)(C)C)CC(=O)O3)[C@H]2[C@@H](OC(=O)NCCOCCOCCOCC(=O)Nc2cccc3c2C(=O)N(C2CCC(=O)NC2=O)C3=O)C1` (stereo partly drawn) [Compound 98, (1S,3R,7S,8S,8aR)-8-(2-((2R,4R)-4-((tert-butyldimethylsilyl)oxy)-6-oxotetrahydro-2H-pyran-2-yl)ethyl)-3,7-dimethyl-1,2,3,7,8,8a-hexahydronaphthalen-1-yl (2-(2-(2-(2-((2-(2,6-dioxopiperidin-3-yl)-1,3-dioxoisoindolin-4-yl)amino)-2-oxoethoxy)ethoxy)ethoxy)ethyl)carbamate], the 50% degradation concentration (DC50) was less than 50 nM.
Consider `C[C@H]1C=C2C=C[C@H](C)[C@H](CC[C@@H]3C[C@@H](O)CC(=O)O3)[C@H]2[C@@H](OC(=O)NCCOCCOCCOCC(=O)Nc2cccc3c2C(=O)N(C2CCC(=O)NC2=O)C3=O)C1` (stereo partly drawn) [Compound 99, (1S,3R,7S,8S,8aR)-8-(2-((2R,4R)-4-hydroxy-6-oxotetrahydro-2H-pyran-2-yl)ethyl)-3,7-dimethyl-1,2,3,7,8,8a-hexahydronaphthalen-1-yl (2-(2-(2-(2-((2-(2,6-dioxopiperidin-3-yl)-1,3-dioxoisoindolin-4-yl)amino)-2-oxoethoxy)ethoxy)ethoxy)ethyl)carbamate], for which the DC50 was less than 50 nM.
With `C[C@H]1C=C2C=C[C@H](C)[C@H](CC[C@@H]3C[C@@H](O[Si](C)(C)C(C)(C)C)CC(=O)O3)[C@H]2[C@@H](OC(=O)NCCC(=O)NCCOCCNc2cccc3c2C(=O)N(C2CCC(=O)NC2=O)C3=O)C1` (stereo partly drawn) [Compound 100, (1S,3R,7S,8S,8aR)-8-(2-((2R,4R)-4-((tert-butyldimethylsilyl)oxy)-6-oxotetrahydro-2H-pyran-2-yl)ethyl)-3,7-dimethyl-1,2,3,7,8,8a-hexahydronaphthalen-1-yl (3-((2-(2-((2-(2,6-dioxopiperidin-3-yl)-1,3-dioxoisoindolin-4-yl)amino)ethoxy)ethyl)amino)-3-oxopropyl)carbamate], the DC50 was less than 50 nM.
For `C[C@H]1C=C2C=C[C@H](C)[C@H](CC[C@@H]3C[C@@H](O)CC(=O)O3)[C@H]2[C@@H](OC(=O)NCCC(=O)NCCOCCNc2cccc3c2C(=O)N(C2CCC(=O)NC2=O)C3=O)C1` (stereo partly drawn) [Compound 101, (1S,3R,7S,8S,8aR)-8-(2-((2R,4R)-4-hydroxy-6-oxotetrahydro-2H-pyran-2-yl)ethyl)-3,7-dimethyl-1,2,3,7,8,8a-hexahydronaphthalen-1-yl (3-((2-(2-((2-(2,6-dioxopiperidin-3-yl)-1,3-dioxoisoindolin-4-yl)amino)ethoxy)ethyl)amino)-3-oxopropyl)carbamate], the DC50 was less than 50 nM.
As for `C[C@H]1C=C2C=C[C@H](C)[C@H](CC[C@@H]3C[C@@H](O[Si](C)(C)C(C)(C)C)CC(=O)O3)[C@H]2[C@@H](OC(=O)NCCCn2cnc(CNc3cccc4c3C(=O)N(C3CCC(=O)NC3=O)C4=O)c2)C1` (stereo partly drawn) [Compound 102, (1S,3R,7S,8S,8aR)-8-(2-((2R,4R)-4-((tert-butyldimethylsilyl)oxy)-6-oxotetrahydro-2H-pyran-2-yl)ethyl)-3,7-dimethyl-1,2,3,7,8,8a-hexahydronaphthalen-1-yl (3-(4-(((2-(2,6-dioxopiperidin-3-yl)-1,3-dioxoisoindolin-4-yl)amino)methyl)-1H-imidazol-1-yl)propyl)carbamate], the DC50 is less than 50 nM.
Turning to `C[C@H]1C=C2C=C[C@H](C)[C@H](CC[C@@H]3C[C@@H](O)CC(=O)O3)[C@H]2[C@@H](OC(=O)NCCCn2cnc(CNc3cccc4c3C(=O)N(C3CCC(=O)NC3=O)C4=O)c2)C1` (stereo partly drawn) [Compound 103, (1S,3R,7S,8S,8aR)-8-(2-((2R,4R)-4-hydroxy-6-oxotetrahydro-2H-pyran-2-yl)ethyl)-3,7-dimethyl-1,2,3,7,8,8a-hexahydronaphthalen-1-yl (3-(4-(((2-(2,6-dioxopiperidin-3-yl)-1,3-dioxoisoindolin-4-yl)amino)methyl)-1H-imidazol-1-yl)propyl)carbamate], the DC50 is less than 50 nM.
Turning to `C[C@H]1C=C2C=C[C@H](C)[C@H](CC[C@@H]3C[C@@H](O[Si](C)(C)C(C)(C)C)CC(=O)O3)[C@H]2[C@@H](OC(=O)NCc2ccc(OCCNc3cccc4c3C(=O)N(C3CCC(=O)NC3=O)C4=O)cc2)C1` (stereo partly drawn) [Compound 104, (1S,3R,7S,8S,8aR)-8-(2-((2R,4R)-4-((tert-butyldimethylsilyl)oxy)-6-oxotetrahydro-2H-pyran-2-yl)ethyl)-3,7-dimethyl-1,2,3,7,8,8a-hexahydronaphthalen-1-yl (4-(2-((2-(2,6-dioxopiperidin-3-yl)-1,3-dioxoisoindolin-4-yl)amino)ethoxy)benzyl)carbamate], the half-maximal degradation concentration (DC50) is less than 50 nM.
As for `C[C@H]1C=C2C=C[C@H](C)[C@H](CC[C@@H]3C[C@@H](O)CC(=O)O3)[C@H]2[C@@H](OC(=O)NCc2ccc(OCCNc3cccc4c3C(=O)N(C3CCC(=O)NC3=O)C4=O)cc2)C1` (stereo partly drawn) [Compound 105, (1S,3R,7S,8S,8aR)-8-(2-((2R,4R)-4-hydroxy-6-oxotetrahydro-2H-pyran-2-yl)ethyl)-3,7-dimethyl-1,2,3,7,8,8a-hexahydronaphthalen-1-yl (4-(2-((2-(2,6-dioxopiperidin-3-yl)-1,3-dioxoisoindolin-4-yl)amino)ethoxy)benzyl)carbamate], the half-maximal degradation concentration (DC50) was less than 50 nM.
With `C[C@H]1C=C2C=C[C@H](C)[C@H](CC[C@@H](O)C[C@@H](O)CC(=O)O)[C@H]2[C@@H](OC(=O)NCCOCCOCCNc2cccc3c2C(=O)N(C2CCC(=O)NC2=O)C3=O)C1` (stereo partly drawn) [Compound 106, (3R,5R)-7-((1S,2S,6R,8S,8aR)-8-(((2-(2-(2-((2-(2,6-dioxopiperidin-3-yl)-1,3-dioxoisoindolin-4-yl)amino)ethoxy)ethoxy)ethyl)carbamoyl)oxy)-2,6-dimethyl-1,2,6,7,8,8a-hexahydronaphthalen-1-yl)-3,5-dihydroxyheptanoic acid], the 50% degradation concentration (DC50) is less than 50 nM.
In the case of `C[C@H]1C=C2C=C[C@H](C)[C@H](CC[C@@H](O)C[C@@H](O)CC(=O)O)[C@H]2[C@@H](OC(=O)NCCOCCOCCOCCNc2cccc3c2C(=O)N(C2CCC(=O)NC2=O)C3=O)C1` (stereo partly drawn) [Compound 107, (3R,5R)-7-((1S,2S,6R,8S,8aR)-8-(((2-(2-(2-(2-((2-(2,6-dioxopiperidin-3-yl)-1,3-dioxoisoindolin-4-yl)amino)ethoxy)ethoxy)ethoxy)ethyl)carbamoyl)oxy)-2,6-dimethyl-1,2,6,7,8,8a-hexahydronaphthalen-1-yl)-3,5-dihydroxyheptanoic acid], the DC50 is less than 50 nM.

The DC50 is the midpoint of the concentration-degradation curve.
